Source: article PMC5355811 (Nature Communications, 2017)
Read-outs that look alike come from different tables or passages of the source.

How the values were obtained:
Assay type in all cases: cell-based
[1] = system: Ba/F3 cells of EGFR-del19; test: Drug sensitivity screening at 100 nM, Ba/F3 EGFR-del19; settings: for Relative cell viability (% of DMSO control) in del19 Ba/F3 cells: 100 nM; for viability at 0.1 µM: Mus musculus, BaF3, 72 h, read-out: Relative cell viability (ratio to DMSO control), del19
Method: (§1) After the incubation, cell viability was measured using CellTiter-Glo assay. The relative cell viability was calculated as a ratio of each value to that of the DMSO control.

[2] = system: Ba/F3 cells of EGFR-T790M/del19; test: Drug sensitivity screening at 100 nM, Ba/F3 EGFR-T790M/del19; settings: for Relative cell viability (% of DMSO control): 100 nM; for viability at 0.1 µM: Mus musculus, BaF3, 72 h, read-out: Relative cell viability (ratio to DMSO control), del19/T790M
Method: as §1

[3] = system: Ba/F3 cells of EGFR-C797S/T790M/del19; test: Drug sensitivity screening at 100 nM, Ba/F3 EGFR-C797S/T790M/del19; settings: Mus musculus, BaF3, 72 h, 100 nM inhibitor, 72 h, DMSO = 100; mean of three independent experiments (Fig. 1a data)
Method: as §1

[4] = 100 nM inhibitor, 72 h, DMSO = 100, mean of three independent experiments (Fig. 1a data)

CS(=O)(=O)N1CCN(Cc2cc3nc(-c4cccc5[nH]ncc45)nc(N4CCOCC4)c3s2)CC1 [GDC0941]
Relative cell viability (% of DMSO control) in del19 Ba/F3 cells ([1]; 72 h, DMSO = 100, experiment 1): 34.6965 | Relative cell viability (% of DMSO control) in del19 Ba/F3 cells ([1]; 72 h, DMSO = 100, experiment 2): 39.6485 | Relative cell viability (% of DMSO control) in del19 Ba/F3 cells ([1]; 72 h, DMSO = 100, experiment 3): 45.9129 | viability at 0.1 µM [1, 4]: 40.1% | Relative cell viability (% of DMSO control) ([2]; 72 h, DMSO = 100, experiment 1): 45.3105 | Relative cell viability (% of DMSO control) ([2]; 72 h, DMSO = 100, experiment 2): 67.5344 | Relative cell viability (% of DMSO control) ([2]; 72 h, DMSO = 100, experiment 3): 51.7458 | viability at 0.1 µM [2, 4]: 54.9% | viability at 0.1 µM [3]: 66.1%

Cc1ccc(NC(=O)c2ccc(CN3CCN(C)CC3)cc2)cc1Nc1nccc(-c2cccnc2)n1 [Imatinib, imatinib]
viability at 0.1 µM [3]: 129%

CS(=O)(=O)CCNCc1ccc(-c2ccc3ncnc(Nc4ccc(OCc5cccc(F)c5)c(Cl)c4)c3c2)o1 [Lapatinib, lapatinib]
viability at 0.1 µM [1]: 128% | viability at 0.1 µM [2]: 102%

C[C@H]1Oc2cc(cnc2N)-c2c(nn(C)c2C#N)CN(C)C(=O)c2ccc(F)cc21 [Lorlatinib, lorlatinib]
Relative cell viability (% of DMSO control) in del19 Ba/F3 cells ([1]; 72 h, DMSO = 100, experiment 1): 99.5381 | Relative cell viability (% of DMSO control) in del19 Ba/F3 cells ([1]; 72 h, DMSO = 100, experiment 2): 109.489 | Relative cell viability (% of DMSO control) in del19 Ba/F3 cells ([1]; 72 h, DMSO = 100, experiment 3): 108.837 | viability at 0.1 µM [1, 4]: 106% | Relative cell viability (% of DMSO control) ([2]; 72 h, DMSO = 100, experiment 1): 93.1744 | Relative cell viability (% of DMSO control) ([2]; 72 h, DMSO = 100, experiment 2): 112.187 | Relative cell viability (% of DMSO control) ([2]; 72 h, DMSO = 100, experiment 3): 104.505 | viability at 0.1 µM [2, 4]: 103% | viability at 0.1 µM [3]: 126%

O=C(C(c1ccccc1)c1ccccc1)N1CCN(CC(O)COc2cccc3ncccc23)CC1 (centres unmarked) [MS209]
Relative cell viability (ratio to DMSO control), del19 [1, 4]: 105.44 | Relative cell viability (% of DMSO control) in del19 Ba/F3 cells ([1]; 72 h, DMSO = 100, experiment 1): 97.9213 | Relative cell viability (% of DMSO control) in del19 Ba/F3 cells ([1]; 72 h, DMSO = 100, experiment 2): 113.609 | Relative cell viability (% of DMSO control) in del19 Ba/F3 cells ([1]; 72 h, DMSO = 100, experiment 3): 104.789 | Relative cell viability (ratio to DMSO control), del19/T790M [2, 4]: 109.461 | Relative cell viability (% of DMSO control) ([2]; 72 h, DMSO = 100, experiment 1): 106.534 | Relative cell viability (% of DMSO control) ([2]; 72 h, DMSO = 100, experiment 2): 123.336 | Relative cell viability (% of DMSO control) ([2]; 72 h, DMSO = 100, experiment 3): 98.5141

Cc1[nH]c(/C=C2\C(=O)Nc3ccc(S(=O)(=O)Cc4c(Cl)cccc4Cl)cc32)c(C)c1C(=O)N1CCC[C@@H]1CN1CCCC1 [PHA665752]
Relative cell viability (% of DMSO control) in del19 Ba/F3 cells ([1]; 72 h, DMSO = 100, experiment 1): 109.731 | Relative cell viability (% of DMSO control) in del19 Ba/F3 cells ([1]; 72 h, DMSO = 100, experiment 2): 119.895 | Relative cell viability (% of DMSO control) in del19 Ba/F3 cells ([1]; 72 h, DMSO = 100, experiment 3): 113.452 | viability at 0.1 µM [1, 4]: 114% | viability at 0.1 µM [2, 4]: 110% | viability at 0.1 µM [3]: 136%

CO[C@H]1C[C@@H]2CC[C@@H](C)[C@@](O)(O2)C(=O)C(=O)N2CCCC[C@H]2C(=O)O[C@H]([C@H](C)C[C@@H]2CC[C@@H](O)[C@H](OC)C2)CC(=O)[C@H](C)/C=C(\C)[C@@H](O)[C@@H](OC)C(=O)[C@H](C)C[C@H](C)/C=C/C=C/C=C/1C [Rapamycin, rapamycin]
Relative cell viability (% of DMSO control) in del19 Ba/F3 cells ([1]; 72 h, DMSO = 100, experiment 1): 26.4621 | Relative cell viability (% of DMSO control) in del19 Ba/F3 cells ([1]; 72 h, DMSO = 100, experiment 2): 39.8271 | Relative cell viability (% of DMSO control) in del19 Ba/F3 cells ([1]; 72 h, DMSO = 100, experiment 3): 36.4731 | viability at 0.1 µM [1, 4]: 34.3% | Relative cell viability (% of DMSO control) ([2]; 72 h, DMSO = 100, experiment 1): 30.0228 | Relative cell viability (% of DMSO control) ([2]; 72 h, DMSO = 100, experiment 2): 36.7261 | Relative cell viability (% of DMSO control) ([2]; 72 h, DMSO = 100, experiment 3): 31.8573 | viability at 0.1 µM [2, 4]: 32.9% | viability at 0.1 µM [3]: 27.6%

COc1cc(N2CCC(N3CCN(C)CC3)CC2)ccc1Nc1ncc(Cl)c(Nc2ccccc2S(=O)(=O)C(C)C)n1 [TAE684]
viability at 0.1 µM [1, 4]: 105% | viability at 0.1 µM [2, 4]: 98.1% | viability at 0.1 µM [3]: 110%

CC(=O)Nc1cccc(-n2c(=O)n(C3CC3)c(=O)c3c(Nc4ccc(I)cc4F)n(C)c(=O)c(C)c32)c1 [Trametinib, trametinib]
Relative cell viability (% of DMSO control) in del19 Ba/F3 cells ([1]; 72 h, DMSO = 100, experiment 1): 0.7444 | Relative cell viability (% of DMSO control) in del19 Ba/F3 cells ([1]; 72 h, DMSO = 100, experiment 2): 0.954 | Relative cell viability (% of DMSO control) in del19 Ba/F3 cells ([1]; 72 h, DMSO = 100, experiment 3): 0.9176 | viability at 0.1 µM [1, 4]: 0.872% | Relative cell viability (% of DMSO control) ([2]; 72 h, DMSO = 100, experiment 1): 11.0855 | Relative cell viability (% of DMSO control) ([2]; 72 h, DMSO = 100, experiment 2): 11.5677 | Relative cell viability (% of DMSO control) ([2]; 72 h, DMSO = 100, experiment 3): 12.1404 | viability at 0.1 µM [2, 4]: 11.6% | viability at 0.1 µM [3]: 44.2%

COc1cc2c(Nc3ccc(Br)cc3F)ncnc2cc1OCC1CCN(C)CC1 [Vandetanib, vandetanib]
Relative cell viability (% of DMSO control) in del19 Ba/F3 cells ([1]; 72 h, DMSO = 100, experiment 1): 1.287 | Relative cell viability (% of DMSO control) in del19 Ba/F3 cells ([1]; 72 h, DMSO = 100, experiment 2): 1.585 | Relative cell viability (% of DMSO control) in del19 Ba/F3 cells ([1]; 72 h, DMSO = 100, experiment 3): 1.984 | viability at 0.1 µM [1, 4]: 1.62% | Relative cell viability (% of DMSO control) ([2]; 72 h, DMSO = 100, experiment 1): 95.2444 | Relative cell viability (% of DMSO control) ([2]; 72 h, DMSO = 100, experiment 2): 114.653 | Relative cell viability (% of DMSO control) ([2]; 72 h, DMSO = 100, experiment 3): 98.1331 | viability at 0.1 µM [2, 4]: 103% | viability at 0.1 µM [3]: 130%
